Reference: the supplement of paper PMC11208160

Assay: recombinant barcode read abundance after kanamycin selection (control-corrected) (log10(CPM+1)); higher = more efficient recombination; sequences stand for … in AGTGCAGAGAAAATCGGCCAGTTTTCTCTGCCTGCAGTCCGCATGCCGT…AGATTTATGCAGCGGACTGCCTTTCTCCCAAAGTGATAAACCGGACAGTATCATGGACCGGTTTTCCCGGTAATCCGTATTTGCAAGGTTGGTTTCACT; site = the 11-nt target
In short: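 The screen was pooled in E. coli and paired targets with IS621 bridge RNA target-binding loops. Recombination efficiency is taken from barcode counts per million at recombinant junctions, averaged and adjusted against the control. Values, in the form log10(CPM+1), come from duplicate plating on chloramphenicol/ampicillin LB agar or on chloramphenicol/ampicillin/kanamycin with 0.1 mM IPTG.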
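Further: IS621 recombinase and bridge RNA in Escherichia coli cells.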

Sequence	recombinant barcode read abundance (log10)
AGCTCGTCTTGGGTTCTAACCTGTTGCGG (site AGCTCGTCTCC)	0.448
AGCTCGTCTTGGGTTCTAACCTGTTGCGG (site AGTTCGTCTCG)	0.191
AGCTGGGCTTGGGTTCTAACCTGTTGCCT (site AACTGGGCTAG)	0.0885
AGCTGGGCTTGGGTTCTAACCTGTTGCCT (site ACCTGGGCTAG)	0.101
AGCTGGGCTTGGGTTCTAACCTGTTGCCT (site AGCTGGGCTAG)	0.235
AGCTGGGCTTGGGTTCTAACCTGTTGCCT (site ATCTGGGCTAG)	0.11
AGCTTATCTTGGGTTCTAACCTGTTGCCT (site AGCTAAACTAG)	0.131
AGCTTATCTTGGGTTCTAACCTGTTGCCT (site AGCTTATCTAG)	0.179
AGGAACACTTGGGTTCTAACCTGTTGCTT (site AGGAACACTAA)	1.56
AGGAACACTTGGGTTCTAACCTGTTGCTT (site AGGAACACTCA)	0.279
AGGAACCCTTGGGTTCTAACCTGTTGCTT (site AGGAACCCTAA)	0.911
AGGAACCCTTGGGTTCTAACCTGTTGCTT (site AGGAACCCTCA)	0.328
AGGAACCCTTGGGTTCTAACCTGTTGCTT (site AGGAACCCTGA)	0.127
AGGAACCCTTGGGTTCTAACCTGTTGCTT (site AGGAACCCTTA)	0.256
AGGAAGACTTGGGTTCTAACCTGTTGCGG (site AGGAAGACTCC)	3.01
AGGAAGACTTGGGTTCTAACCTGTTGCGG (site AGGAAGACTCG)	0.25
AGGAAGGCTTGGGTTCTAACCTGTTGCCA (site AGGAAGGCTTG)	0.693
AGGAAGGCTTGGGTTCTAACCTGTTGCCA (site GACGTAACTCT)	0.145
AGGACTACTTGGGTTCTAACCTGTTGCCT (site AGAACTACTAG)	0.217
AGGACTACTTGGGTTCTAACCTGTTGCCT (site AGGACTACTAG)	1.3
AGGAGAGCTTGGGTTCTAACCTGTTGCTT (site AGGAGAGCTAA)	1.13
AGGAGAGCTTGGGTTCTAACCTGTTGCTT (site CTAGCGACTGT)	0.0392

Sequence	recombinant barcode read abundance (log10)
AGGAGCCCTTGGGTTCTAACCTGTTGCCA (site AGGAGCCCTAG)	0.408
AGGAGCCCTTGGGTTCTAACCTGTTGCCA (site AGGAGCCCTTG)	0.841
AGGAGCCCTTGGGTTCTAACCTGTTGCTA (site AGGAGCCCTAA)	0.0121
AGGAGCCCTTGGGTTCTAACCTGTTGCTA (site AGGAGCCCTCA)	0.165
AGGAGCCCTTGGGTTCTAACCTGTTGCTA (site AGGAGCCCTGA)	0.0798
AGGAGCCCTTGGGTTCTAACCTGTTGCTA (site AGGAGCCCTTA)	1.38
AGGATAGCTTGGGTTCTAACCTGTTGCGG (site AGGATAGCTCC)	2.18
AGGATAGCTTGGGTTCTAACCTGTTGCGG (site AGTCTAGCTCC)	0.102
AGGATAGCTTGGGTTCTAACCTGTTGCTG (site AGAATAGCTCT)	0.148
AGGATAGCTTGGGTTCTAACCTGTTGCTG (site AGGATAGCTCA)	1.45
AGGATCCCTTGGGTTCTAACCTGTTGCAG (site AGGATCCCTAT)	0.701
AGGATCCCTTGGGTTCTAACCTGTTGCAG (site AGGATCCCTCT)	2.31
AGGCCCGCTTGGGTTCTAACCTGTTGCGG (site AGGCCCGCTCC)	0.794
AGGCCCGCTTGGGTTCTAACCTGTTGCGG (site GTAAGATCTGT)	0.186
AGGCGCCCTTGGGTTCTAACCTGTTGCAG (site AGGCGCCCTAT)	0.185
AGGCGCCCTTGGGTTCTAACCTGTTGCAG (site AGGCGCCCTCT)	1.4
AGGCGCCCTTGGGTTCTAACCTGTTGCAG (site AGGCGCCCTGT)	0.0789
AGGCGCCCTTGGGTTCTAACCTGTTGCAG (site AGGCGCCCTTT)	0.122
AGGCGTCCTTGGGTTCTAACCTGTTGCCC (site AGGCGTCCTAG)	0.417
AGGCGTCCTTGGGTTCTAACCTGTTGCCC (site AGGCGTCCTCG)	0.0817
AGGCGTCCTTGGGTTCTAACCTGTTGCCC (site AGGCGTCCTGG)	1.78
AGGCGTCCTTGGGTTCTAACCTGTTGCCC (site AGGCGTCCTTG)	0.211

Sequence	recombinant barcode read abundance (log10)
AGGCTGCCTTGGGTTCTAACCTGTTGCCT (site AGGCTGACTAG)	0.126
AGGCTGCCTTGGGTTCTAACCTGTTGCCT (site AGGCTGCCTAG)	0.867
AGGCTGCCTTGGGTTCTAACCTGTTGCCT (site AGGCTGGCTAG)	0.0502
AGGCTGCCTTGGGTTCTAACCTGTTGCCT (site AGGCTGTCTAG)	0.494
AGGCTGGCTTGGGTTCTAACCTGTTGCCT (site AGGCTGACTAG)	0.511
AGGCTGGCTTGGGTTCTAACCTGTTGCCT (site AGGCTGCCTAG)	0.0205
AGGCTGGCTTGGGTTCTAACCTGTTGCCT (site AGGCTGGCTAG)	0.482
AGGCTGGCTTGGGTTCTAACCTGTTGCCT (site AGGCTGTCTAG)	0.166
AGGGACCCTTGGGTTCTAACCTGTTGCCT (site AGGGACCCTAG)	2.62
AGGGACCCTTGGGTTCTAACCTGTTGCCT (site TCTTGGACTGT)	0.0407
AGGGCAGCTTGGGTTCTAACCTGTTGCCT (site AGGGAAGCTAG)	0.135
AGGGCAGCTTGGGTTCTAACCTGTTGCCT (site AGGGCAGCTAG)	0.305
AGGGCAGCTTGGGTTCTAACCTGTTGCCT (site AGGGGAGCTAG)	0.0111
AGGGCAGCTTGGGTTCTAACCTGTTGCCT (site AGGGTAGCTAG)	0.0905
AGGGCGCCTTGGGTTCTAACCTGTTGCCT (site AAGGCGCCTAG)	0.0579
AGGGCGCCTTGGGTTCTAACCTGTTGCCT (site ACGGCGCCTAG)	0.173
AGGGCGCCTTGGGTTCTAACCTGTTGCCT (site AGGGCGCCTAG)	1.63
AGGGCGCCTTGGGTTCTAACCTGTTGCCT (site ATGGCGCCTAG)	0.122
AGGGGTCCTTGGGTTCTAACCTGTTGCAT (site AGGGGTCCTAT)	2.72
AGGGGTCCTTGGGTTCTAACCTGTTGCAT (site TGGGATCCTAT)	0.482
AGGGTACCTTGGGTTCTAACCTGTTGCAG (site AGGGTACCTCT)	2.52
AGGGTACCTTGGGTTCTAACCTGTTGCAG (site GAATCGACTAG)	0.0315

Sequence	recombinant barcode read abundance (log10)
AGGGTAGCTTGGGTTCTAACCTGTTGCCT (site AGGGAAGCTAG)	0.101
AGGGTAGCTTGGGTTCTAACCTGTTGCCT (site AGGGCAGCTAG)	0.224
AGGGTAGCTTGGGTTCTAACCTGTTGCCT (site AGGGGAGCTAG)	0.163
AGGGTAGCTTGGGTTCTAACCTGTTGCCT (site AGGGTAGCTAG)	1.04
AGGTATGCTTGGGTTCTAACCTGTTGCCT (site AGGTATGCTAG)	1.35
AGGTATGCTTGGGTTCTAACCTGTTGCCT (site AGGTCTGCTAG)	0.0877
AGGTATGCTTGGGTTCTAACCTGTTGCCT (site AGGTGTGCTAG)	0.51
AGGTATGCTTGGGTTCTAACCTGTTGCCT (site AGGTTTGCTAG)	0.248
AGGTCTACTTGGGTTCTAACCTGTTGCAC (site AGGTCTACTGT)	0.521
AGGTCTACTTGGGTTCTAACCTGTTGCAC (site GTCCTATCTTA)	0.13
AGGTCTACTTGGGTTCTAACCTGTTGCTT (site AGGTCTACTAA)	0.296
AGGTCTACTTGGGTTCTAACCTGTTGCTT (site GAACGCTCTTG)	0.171
AGGTTCCCTTGGGTTCTAACCTGTTGCTC (site AGGTTCCCTAA)	0.243
AGGTTCCCTTGGGTTCTAACCTGTTGCTC (site AGGTTCCCTCA)	0.101
AGGTTCCCTTGGGTTCTAACCTGTTGCTC (site AGGTTCCCTGA)	1.45
AGGTTCCCTTGGGTTCTAACCTGTTGCTC (site AGGTTCCCTTA)	0.026
AGTAAGCCTTGGGTTCTAACCTGTTGCCA (site AGTAAGCCTTG)	0.33
AGTAAGCCTTGGGTTCTAACCTGTTGCCA (site AGTAAGGCTAG)	0.113
AGTAAGGCTTGGGTTCTAACCTGTTGCCT (site AGTAAGCCTTG)	0.44
AGTAAGGCTTGGGTTCTAACCTGTTGCCT (site AGTAAGGCTAG)	0.0834
